Here are results for 48 compounds from patent US7642354B2, “Polycyclic pyrazines as potassium ion channel modulators” (Icagen, Inc., priority 2004, dated 2010).

For this assay, the target named is hSK2 (Homo sapiens, UniProt Q9H2S1). Kind of assay: Assay for compound activity towards hSK channels (86Rb+ efflux). Format: cell-based. The conditions noted are these: 86Rb+ efflux stimulated with calcium ionophore; drug 0.01 to 30 μM in EBSS; read-out: hSK2 Inhibitory Activity. On the procedure: 18.1 Assay for Compound Activity Towards hSK Channels Cells expressing small conductance, calcium activated potassium channels, such as SK-like channels were loaded with ^86Rb^+ by culture in media containing ^86RbCl. Following loading, the culture media was removed and the cells were washed in EBSS to remove residual traces of ^86Rb^+. Cells were preincubated with the drug (0.01 to 30 μM in EBSS) and then ^86Rb^+ efflux was stimulated by exposing cells to EBSS solution supplemented with a calcium ionophore, such as ionomycin, in the continued presence of the drug. After a suitable efflux period, the EBSS/ionophore solution was removed from the cells and the ^86Rb^+ content was determined by Cherenkov counting (Wallac Trilux). Cells were then lysed with a SDS solution and the ^86Rb^+ content of the lysate was determined. Percent ^86Rb^+ efflux was calculated according to the following equation: (^86Rb^+ content in EBSS/(^86Rb^+ content in EBSS+^86Rb^+ content of the lysate))×100
For the compound `c1ccc(-c2cncc(Nc3nc[nH]n3)n2)nc1` [(6-Pyridin-2-yl-pyrazin-2-yl)-(1H-[1,2,4]triazol-3-yl)-amine], the IC50 lay within 3 to 30 µM.
As for `Cc1ccc(-c2ccc(Nc3cncc(-c4ccccn4)n3)nc2)o1` [[5-(5-Methyl-furan-2-yl)-pyridin-2-yl]-(6-pyridin-2-yl-pyrazin-2-yl)-amine], the figure is 0.05 to 1 µM.
To `O=C(c1ccccc1)c1nccnc1Nc1cncc(-c2ccccn2)n1` [Phenyl-[3-(6-pyridin-2-yl-pyrazin-2-ylamino)-pyrazin-2-yl]-methanone] belongs 3 to 30 µM.
As for `NC(=O)c1ncc(-c2ccccn2)nc1Nc1ccccn1` [5-Pyridin-2-yl-3-(pyridin-2-ylamino)-pyrazine-2-carboxylic acid amide], the figure is 3 to 30 µM; as for `Cc1ccnc(Nc2cncc(-c3ccccn3)n2)c1[N+](=O)[O-]` [(4-Methyl-3-nitro-pyridin-2-yl)-(6-pyridin-2-yl-pyrazin-2-yl)-amine], 3 to 30 µM.
For the compound `[O-][n+]1ccccc1Nc1cncc(-c2ccccn2)n1` [(1-Oxy-pyridin-2-yl)-(6-pyridin-2-yl-pyrazin-2-yl)-amine], the IC50 lay in the range of 3 to 30 µM.
To `Clc1ccc(-c2ccc(Nc3cncc(-c4ccccn4)n3)nc2)s1` [[5-(5-Chloro-thiophen-2-yl)-pyridin-2-yl]-(6-pyridin-2-yl-pyrazin-2-yl)-amine] belongs 0.05 to 1 µM.
For the compound `c1ccc(-c2cncc(Nc3ccc(-c4cccnc4)cn3)n2)nc1` [[3,3′]Bipyridinyl-6-yl-(6-pyridin-2-yl-pyrazin-2-yl)-amine], the IC50 fell in the range of 0.05 to 1 µM.
Consider `Cc1ccnc(-c2cncc(Nc3ccccn3)n2)c1` [[6-(4-Methyl-pyridin-2-yl)-pyrazin-2-yl]-pyridin-2-yl-amine], for which the IC50 lay within 0.05 to 1 µM.
As for `c1ccc(-c2cncc(Nc3cnccn3)n2)nc1` [Pyrazin-2-yl-(6-pyridin-2-yl-pyrazin-2-yl)-amine], the figure is 0.05 to 1 µM; as for `c1ccc(-c2cncc(Nc3cc(-c4ccco4)n[nH]3)n2)nc1` [(5-Furan-2-yl-2H-pyrazol-3-yl)-(6-pyridin-2-yl-pyrazin-2-yl)-amine], 3 to 30 µM.
As for `Cc1cnn(-c2cncc(Nc3ccc(-c4ccccc4)cn3)n2)c1` [[6-(4-Methyl-pyrazol-1-yl)-pyrazin-2-yl]-(5-phenyl-pyridin-2-yl)-amine], the IC50 is 3 to 30 µM.
As for `Brc1ncc(-c2ccccn2)nc1Nc1ccccn1` [(3-Bromo-6-pyridin-2-yl-pyrazin-2-yl)-pyridin-2-yl-amine], the figure is 1 to 3 µM; as for `c1ccc(-c2ccc(Nc3cncc(-c4nccs4)n3)nc2)cc1` [(5-Phenyl-pyridin-2-yl)-(6-thiazol-2-yl-pyrazin-2-yl)-amine], 3 to 30 µM.
As for `c1ccc(-c2cncc(Nc3ccc(-c4ccco4)cn3)n2)nc1` [(5-Furan-2-yl-pyridin-2-yl)-(6-pyridin-2-yl-pyrazin-2-yl)-amine], the figure is 0.05 to 1 µM.
`c1ccc(-c2cncc(Nc3nccs3)n2)nc1` [(6-Pyridin-2-yl-pyrazin-2-yl)-thiazol-2-yl-amine]: the IC50 lay within 3 to 30 µM.
In the case of `Cc1cnn(-c2cncc(Nc3ccc(I)cn3)n2)c1` [(5-Iodo-pyridin-2-yl)-[6-(4-methyl-pyrazol-1-yl)-pyrazin-2-yl]-amine], the IC50 lay within 3 to 30 µM.
As for `Cc1ccnc(Nc2cncc(-c3ccccn3)n2)c1` [(4-Methyl-pyridin-2-yl)-(6-pyridin-2-yl-pyrazin-2-yl)-amine], the figure is below 0.05 µM.
Take `O=C(c1nccnc1Nc1cncc(-c2ccccn2)n1)N1CCCC1` [[3-(6-Pyridin-2-yl-pyrazin-2-ylamino)-pyrazin-2-yl]-pyrrolidin-1-yl-methanone]: the IC50 was in the range of 3 to 30 µM.
As for `CCOC(=O)c1cnn(-c2ccccc2)c1Nc1cncc(-c2ccccn2)n1` [1-Phenyl-5-(6-pyridin-2-yl-pyrazin-2-ylamino)-1H-pyrazole-4-carboxylic acid ethyl ester], the figure is 3 to 30 µM; as for `FC(F)(F)c1cnc(Nc2cncc(-c3ccccn3)n2)c(Cl)c1` [(3-Chloro-5-trifluoromethyl-pyridin-2-yl)-(6-pyridin-2-yl-pyrazin-2-yl)-amine], 3 to 30 µM; as for `Cc1nnc(Nc2cncc(-c3ccccn3)n2)s1` [(5-Methyl-[1,3,4]thiadiazol-2-yl)-(6-pyridin-2-yl-pyrazin-2-yl)-amine], 3 to 30 µM.
For `c1ccc(-c2cncc(Nc3ccc(N4CCCC4)cn3)n2)nc1` [(6-Pyridin-2-yl-pyrazin-2-yl)-(5-pyrrolidin-1-yl-pyridin-2-yl)-amine], the IC50 was below 0.05 µM.
To `Brc1ccc(Nc2cncc(-c3ccccn3)n2)nc1` [(5-Bromo-pyridin-2-yl)-(6-pyridin-2-yl-pyrazin-2-yl)-amine] belongs 0.05 to 1 µM; to `Fc1cccc(Nc2cncc(-c3ccccn3)n2)n1` [(6-Fluoro-pyridin-2-yl)-(6-pyridin-2-yl-pyrazin-2-yl)-amine], 1 to 3 µM.
For `Clc1ccc(Nc2cncc(-c3cc(N4CCCC4)ccn3)n2)nc1` [(5-Chloro-pyridin-2-yl)-[6-(4-pyrrolidin-1-yl-pyridin-2-yl)-pyrazin-2-yl]-amine], the IC50 was in the range of 1 to 3 µM.
To `c1ccc(-c2ccc(Nc3cncc(-c4ccccn4)n3)nc2)cc1` [(5-Phenyl-pyridin-2-yl)-(6-pyridin-2-yl-pyrazin-2-yl)-amine] belongs 0.05 to 1 µM; to `COc1cc(OC)nc(Nc2cncc(-c3ccccn3)n2)n1` [(4,6-Dimethoxy-pyrimidin-2-yl)-(6-pyridin-2-yl-pyrazin-2-yl)-amine], 3 to 30 µM.
To `Cc1cnn(-c2cncc(Nc3ccc(N4CCCC4)cn3)n2)c1` [[6-(4-Methyl-pyrazol-1-yl)-pyrazin-2-yl]-(5-pyrrolidin-1-yl-pyridin-2-yl)-amine] belongs 0.05 to 1 µM; to `O=C1CCCN1c1ccc(Nc2cncc(-c3nccs3)n2)nc1` [1-[6-(6-Thiazol-2-yl-pyrazin-2-ylamino)-pyridin-3-yl]-pyrrolidin-2-one], 0.05 to 1 µM.
On to `O=[N+]([O-])c1ccc(Nc2cncc(-c3ccccn3)n2)nc1` [(5-Nitro-pyridin-2-yl)-(6-pyridin-2-yl-pyrazin-2-yl)-amine], for which the IC50 lay in the range of 3 to 30 µM.
As for `Cn1c(Nc2cncc(-c3ccccn3)n2)nc2ccccc21` [(1-Methyl-1H-benzoimidazol-2-yl)-(6-pyridin-2-yl-pyrazin-2-yl)-amine], the figure is 3 to 30 µM; as for `c1ccc(-c2cncc(Nc3ncncn3)n2)nc1` [(6-Pyridin-2-yl-pyrazin-2-yl)-[1,3,5]triazin-2-yl-amine], 3 to 30 µM.
`c1ccc(-c2cncc(Nc3ccncn3)n2)nc1` [(6-Pyridin-2-yl-pyrazin-2-yl)-pyrimidin-4-yl-amine]: the IC50 lay in the range of 3 to 30 µM.
As to `CC1CCN(c2ccc(Nc3cncc(-c4ccccn4)n3)nc2)CC1` [(4-Methyl-3,4,5,6-tetrahydro-2H-[1,3′]bipyridinyl-6′-yl)-(6-pyridin-2-yl-pyrazin-2-yl)-amine], the IC50 fell in the range of 0.05 to 1 µM.
As for `Cc1ccnc(-c2cncc(Nc3ccc(F)cn3)n2)c1` [(5-Fluoro-pyridin-2-yl)-[6-(4-methyl-pyridin-2-yl)-pyrazin-2-yl]-amine], the figure is 0.05 to 1 µM.
As for `c1ccc(-c2cncc(Nc3ccc4ccccc4n3)n2)nc1` [(6-Pyridin-2-yl-pyrazin-2-yl)-quinolin-2-yl-amine], the figure is 3 to 30 µM; as for `NC(=O)c1ccc(Nc2cncc(-c3ccccn3)n2)nc1` [6-(6-Pyridin-2-yl-pyrazin-2-ylamino)-nicotinamide], 3 to 30 µM; as for `Cc1cnn(-c2cncc(Nc3ccc(N4CCCC4=O)cn3)n2)c1` [1-{6-[6-(4-Methyl-pyrazol-1-yl)-pyrazin-2-ylamino]-pyridin-3-yl}-pyrrolidin-2-one], 0.05 to 1 µM.
Consider `c1ccc(Nc2cncc(-c3cc4ccccc4o3)n2)nc1` [(6-Benzofuran-2-yl-pyrazin-2-yl)-pyridin-2-yl-amine], for which the IC50 was in the range of 3 to 30 µM.
Regarding `CN1CCN(c2ccc(Nc3cncc(-c4ccccn4)n3)nc2)C(=O)C1` [4-Methyl-1-[6-(6-pyridin-2-yl-pyrazin-2-ylamino)-pyridin-3-yl]-piperazin-2-one], the IC50 lay in the range of 3 to 30 µM.
On to `c1ccc(-c2cncc(Nc3ncccn3)n2)nc1` [(6-Pyridin-2-yl-pyrazin-2-yl)-pyrimidin-2-yl-amine], for which the IC50 fell in the range of 3 to 30 µM.
Take `COc1ccccc1-c1ccc(Nc2cncc(-c3ccccn3)n2)nc1` [[5-(2-Methoxy-phenyl)-pyridin-2-yl]-(6-pyridin-2-yl-pyrazin-2-yl)-amine]: the IC50 lay in the range of 0.05 to 1 µM.
To `c1ccc(-c2ccc(Nc3cncc(-c4cc(N5CCCC5)ccn4)n3)nc2)cc1` [(5-Phenyl-pyridin-2-yl)-[6-(4-pyrrolidin-1-yl-pyridin-2-yl)-pyrazin-2-yl]-amine] belongs 3 to 30 µM; to `c1ccc(Nc2cncc(-c3ccccn3)n2)nc1` [Pyridin-2-yl-(6-pyridin-2-yl-pyrazin-2-yl)-amine], below 0.05 µM.
Turning to `CCOC(=O)c1sc(Nc2cncc(-c3ccccn3)n2)nc1-c1ccccc1` [4-Phenyl-2-(6-pyridin-2-yl-pyrazin-2-ylamino)-thiazole-5-carboxylic acid ethyl ester], the IC50 was 3 to 30 µM.
To `Brc1ccc(Nc2cnc(Br)c(-c3ccccn3)n2)nc1` [(5-Bromo-pyridin-2-yl)-(5-bromo-6-pyridin-2-yl-pyrazin-2-yl)-amine] belongs 3 to 30 µM; to `CN1CCN(c2ccc(Nc3cncc(-c4ccccn4)n3)nc2)CC1` [[5-(4-Methyl-piperazin-1-yl)-pyridin-2-yl]-(6-pyridin-2-yl-pyrazin-2-yl)-amine], 1 to 3 µM.
